Results published in publication PMC7177633, “Effective Cellular Transport of Ortho-Halogenated Sulfonamide Derivatives of Metformin Is Related to Improved Antiproliferative Activity and Apoptosis Induction in MCF-7 Cells” (International Journal of Molecular Sciences, 2020).
Read-outs that look alike come from different tables or passages of the source.

Tests used:
MDA-MB-231 cells = assay: Annexin V-FITC/PI apoptosis assay, MDA-MB-231; format: cell-based, human; details: for Early Apoptotic [E+−] / Late Apoptotic [E++] / Living Cells [E−−] / Necrotic Cells [E−+] / Single Cells in Gate B: MDA-MB-231, 24 h
Method: (§1) MCF-7 and MDA-MB-231 cells were seeded at a density of 5 × 10^4 per well on 24-well plates and incubated for 24 h (37 °C, 5% CO2) to obtain 70 % confluency. Then, the medium (control) or medium with the tested compounds in a volume of 250 μL was added and incubated for another 24 h. The cells were harvested using accutase (Sigma Aldrich, St. Louis, MO, USA) as a detaching reagent, collected to Eppendorf tubes and centrifuged (1100 rpm, 5 min). Afterwards, the cells were resuspended in 1 mL of a cold cell-staining buffer (Biolegend, London UK) and washed twice with a cell-staining buffer. The final step included suspension of the cell pellets in 100 μL of a binding buffer, staining with propidine iodide (PI; 10 μL) and FITC-annexin solutions (AV; 5 μL) (FITC Annexin V Apoptosis Detection Kit with PI (Biolegend, UK)). The samples were incubated for 20 min at room temperature in the dark, followed by an analysis conducted on a cytometer (CytoFlex, blue laser, 480 nm, Beckman-Coulter, Indianapolis, IN, USA). The results were analyzed using Kaluza 2.1 (Beckman-Coulter) software.
(§2) Annexin V (−) and PI (−) cells were considered living cells, annexin V (+) and PI (−) as early-apoptotic cells, annexin V (+) and PI (+) as late-apoptotic cells and annexin V (−) and PI (+) as necrotic cells.
(§3) The experiments were conducted in triplicates (n = 3). The coefficients of variation for the assay were determined (CV = 0.97–13.62%, depending on the calculated cell population).

OCTs = assay: Inhibition of [14C]choline uptake in MCF-7 cells (competitive inhibition assay); format: cell-based, human; details: mean ± SD (n = 3)
Method: The following day, after removal of the culture medium, the cells were carefully washed with prewarmed HBSS (Hanks’ balanced salt solution) containing 125 mM NaCl, 4.8 mM KCl, 1.2 mM MgSO4, 1.2 mM KH2PO4, 1.3 mM CaCl2, 5.6 mM glucose and 25 mM HEPES (pH 7.4). […] Then, the cells were washed three times with ice-cold HBSS (500 μL) and were lysed with 250 μL of 0.1-M NaOH in the ice bath, and the lysate was mixed with 1.0 mL of an emulsifier safe cocktail (PerkinElmer, Waltham, MA, USA). The radioactivity was measured by liquid scintillation counting (MicroBeta^2 counter, PerkinElmer, Waltham, MA, USA). The studies were carried out with the use of at least three replicates from the same cell passage.

MCF-7 cells [1] = assay: Annexin V-FITC/PI apoptosis assay, MCF-7; format: cell-based, human; details: for Early Apoptotic [E+−] / Late Apoptotic [E++] / Living Cells [E−−] / Necrotic Cells [E−+] / Single Cells in Gate B: MCF-7, 24 h
Method: as §1, §2, §3

MCF-7 cells [2] = assay: Cellular uptake of metformin sulfonamides in MCF-7 cells (HPLC); format: in vitro ADME, human; details: for uptake into MCF-7 cells / uptake in MCF-7 cells relative to metformin: 800 μmol/L; for uptake into MCF-7 cells: 10 min incubation, 37 °C; for uptake in MCF-7 cells relative to metformin: fold higher than parent drug metformin
Method: The uptake of metformin sulfonamides (1–9) in MCF-7 and MDA-MB-231 cells was studied by incubation of the cells with 10−3000 μmol/L of compounds in 250 μL of prewarmed HBSS buffer at 37 °C for 10 min. Subsequently, the cells were then washed three times with 500 μL of ice-cold HBSS and lysed with 250 μL of 0.1-M NaOH. The samples were collected, centrifuged (5 min, 1400 rpm) and the supernatants were analyzed by the HPLC method. The concentration of each compound in the cells was calculated on the basis of the standard curve prepared by spiking known amounts of every compound on the cell layers in 250 μL of 0.1-M NaOH.
The concentration of the studied sulfonamides (1–9) was assessed using the HPLC system, consisting of an Agilent 1100 binary pump (Agilent Technologies Inc., Wilmington, DE, USA), an 1100 micro-vacuum degasser, an HP 1050 autosampler and an HP 1050 variable wavelength detector (operated at 235 nm). The chromatographic separations of compounds 1–9 were conducted on an Agilent Zorbax SB-C18 analytical column (4.6 mm × 150 mm, 5 μm) using an isocratic elution of water containing 0.1% formic acid (pH ca. 3.0) and acetonitrile containing 0.1% formic acid with a changing ratio, depending on the compound. The analyses were conducted at room temperature (RT). The detailed procedure of chromatographic analysis was described in our previous paper. The studies were conducted in quadruplicates.
The protein concentrations in representative wells of each plate were assessed using a Bio-Rad protein assay according to the Bradford method (EnVision, PerkinElmer, Inc., Waltham, MA, USA).

[3] = MDA-MB-231, 3000 uM, representative cytogram Figure 7B
[4] = Comp. 1 and 4 1500 μmol/L, Comp. 7 1300 μmol/L (½ × IC50)
[5] = Comp. 1 and 4 3000 μmol/L, Comp. 7 2600 (IC50)
[6] = MCF-7, 430 uM, representative cytogram Figure 7A
[7] = IC50 (Comp. 1 13, Comp. 4 430, Comp. 7 55 μmol/L)
[8] = ½ × IC50 (Comp. 1 6.5, Comp. 4 215, Comp. 7 27.5 μmol/L)
[9] = ½ × IC50 (Comp. 1 6.5, Comp. 4 215, Comp. 7 27.5 μmol/L), listed as Comp. 4
[10] = Eadie-Hofstee analysis, transporter I
[11] = Eadie-Hofstee analysis, transporter I, read-out: Km, transporter I, MCF-7
[12] = Eadie-Hofstee analysis, transporter II
[13] = Eadie-Hofstee analysis, transporter II, read-out: Km, transporter II, MCF-7
[14] = Michaelis-Menten curve, read-out: Km MCF-7 (Michaelis Menten curves)

Row | IC50 (OCTs) [mM] | Structure (SMILES) | Early Apoptotic [E+−] (MDA-MB-231 cells; [4]) [%] | Late Apoptotic [E++] (MDA-MB-231 cells; [4]) [%] | Living Cells [E−−] (MDA-MB-231 cells; [4]) [%] | Necrotic Cells [E−+] (MDA-MB-231 cells; [4]) [%] | Single Cells in Gate B (MDA-MB-231 cells; [4]) [%] | Early Apoptotic [E+−] (MDA-MB-231 cells; [5]) [%] | Late Apoptotic [E++] (MDA-MB-231 cells; [5]) [%] | Living Cells [E−−] (MDA-MB-231 cells; [5]) [%] | Necrotic Cells [E−+] (MDA-MB-231 cells; [5]) [%] | Single Cells in Gate B (MDA-MB-231 cells; [5]) [%] | Early Apoptotic [E+−] (MCF-7 cells [1]; [7]) [%] | Late Apoptotic [E++] (MCF-7 cells [1]; [7]) [%] | Living Cells [E−−] (MCF-7 cells [1]; [7]) [%] | Necrotic Cells [E−+] (MCF-7 cells [1]; [7]) [%] | Single Cells in Gate B (MCF-7 cells [1]; [7]) [%] | Early Apoptotic [E+−] (MCF-7 cells [1]; [8]) [%] | Late Apoptotic [E++] (MCF-7 cells [1]; [8]) [%] | Living Cells [E−−] (MCF-7 cells [1]; [8]) [%] | Necrotic Cells [E−+] (MCF-7 cells [1]; [8]) [%] | also measured
1 | 1.67 ± 0.0085 | CN(C)C(=N)N=C(N)NS(=O)(=O)c1ccccc1Br [Compound 4] | 7.74 ± 0.91 | 13.30 ± 0.66 | 72.64 ± 1.76 | 6.31 ± 0.26 | 93.37 ± 0.34 | 6.85 ± 0.34 | 36.51 ± 3.36 | 49.49 ± 2.31 | 7.15 ± 1.45 | 90.59 ± 0.70 | 22.71 ± 2.11 | 60.16 ± 2.21 | 16.84 ± 1.93 | 0.29 ± 0.09 | 83.19 ± 0.40 | 30.69 ± 3.01 | 34.69 ± 1.51 | 34.17 ± 3.88 | 0.45 ± 0.15 | Early apoptosis (representative cytogram) (MDA-MB-231 cells; [3]): 6.91%; Late apoptosis (representative cytogram) (MDA-MB-231 cells; [3]): 34.48%; Live cells (representative cytogram) (MDA-MB-231 cells; [3]): 51.21%; Necrotic cells (representative cytogram) (MDA-MB-231 cells; [3]): 7.40%; Early apoptosis (representative cytogram) (MCF-7 cells [1]; [6]): 24.99%; Late apoptosis (representative cytogram) (MCF-7 cells [1]; [6]): 59.54%; Live cells (representative cytogram) (MCF-7 cells [1]; [6]): 15.26%; Necrotic cells (representative cytogram) (MCF-7 cells [1]; [6]): 0.21%; Late Apoptotic [E++] (MCF-7 cells [1]; IC50 (Comp. 1 13, Comp. 4 430, Comp. 7 55 μmol/L), listed as Comp. 4): 60.16 ± 2.21 %; Single Cells in Gate B (MCF-7 cells [1]; [8]): 78.90 ± 0.11 %; Early Apoptotic [E+−] (MCF-7 cells [1]; [9]): 30.69 ± 3.01 %; Late Apoptotic [E++] (MCF-7 cells [1]; [9]): 34.69 ± 1.51 %; Living Cells [E−−] (MCF-7 cells [1]; [9]): 34.17 ± 3.88 %; Vmax, transporter I, MCF-7 (MCF-7 cells [2]; [10]): 0.031 ± 0.002 nmol/min/mg; Km (MCF-7 cells [2]; [11]): 1.54 ± 0.22 mM; Vmax, transporter II, MCF-7 (MCF-7 cells [2]; [12]): 0.153 ± 0.022 nmol/min/mg; Km (MCF-7 cells [2]; [13]): 8.37 ± 1.43 mM; Vmax MCF-7 (Michaelis Menten curves) (MCF-7 cells [2]; Michaelis-Menten curve): 0.049 ± 0.02 nmol/min/mg; Km (MCF-7 cells [2]; [14]): 2.47 ± 0.652 mM
2 | 1.05 ± 0.0142 | CN(C)C(=N)N=C(N)NS(=O)(=O)c1ccccc1Cl [Compound 1] | 7.66 ± 0.06 | 8.06 ± 0.81 | 81.55 ± 1.65 | 2.74 ± 0.98 | 94.34 ± 0.26 | 9.96 ± 0.92 | 31.41 ± 3.46 | 53.83 | 4.81 ± 0.60 | 91.85 ± 0.37 | 35.79 ± 3.78 | 33.84 ± 3.17 | 29.96 ± 6.41 | 0.41 ± 0.02 | 82.66 ± 0.68 | 27.59 ± 1.03 | 38.93 ± 3.46 | 32.82 ± 4.50 | 0.67 ± 0.08 | Living Cells [E−−] (MDA-MB-231 cells; Comp. 1 and 4 1500 μmol/L, Comp. 7 1300 μmol/L (½ × IC50), listed as Comp. 1): 81.55 ± 1.65 %; Living Cells [E−−] (MDA-MB-231 cells; Comp. 1 and 4 3000 μmol/L, Comp. 7 2600 (IC50), listed as Comp. 1): 53.83 ± 3.87 %; Single Cells in Gate B (MCF-7 cells [1]; [8]): 77.51 ± 0.92 %; uptake into MCF-7 cells (MCF-7 cells [2]): 1.79 ± 0.79 nmol/min/mg protein; Vmax, transporter I, MCF-7 (MCF-7 cells [2]; [10]): 18.53 ± 2.41 nmol/min/mg; Km (MCF-7 cells [2]; [11]): 6.72 ± 0.982 mM; Vmax, transporter II, MCF-7 (MCF-7 cells [2]; [12]): 62.84 ± 21.37 nmol/min/mg; Km (MCF-7 cells [2]; [13]): 21.1 ± 7.73 mM; uptake in MCF-7 cells relative to metformin (MCF-7 cells [2]): approximately 14 fold
3 | 6.354 ± 0.0129 | CN(C)C(=N)N=C(N)NS(=O)(=O)c1ccccc1F [Compound 7] | 8.78 ± 0.63 | 18.89 ± 2.67 | 68.26 ± 3.51 | 4.06 ± 1.75 | 93.75 ± 0.41 | 6.39 ± 0.16 | 35.54 ± 2.67 | 50.40 ± 4.95 | 7.66 ± 2.93 | 91.60 ± 0.48 | 24.35 ± 2.19 | 43.24 ± 4.09 | 31.88 ± 4.77 | 0.54 ± 0.01 | 79.48 ± 0.82 | 23.59 ± 1.57 | 35.98 ± 4.64 | 39.85 ± 5.67 | 0.57 ± 0.03 | Single Cells in Gate B (MCF-7 cells [1]; [8]): 78.97 ± 0.51 %; uptake into MCF-7 cells (MCF-7 cells [2]): 1.592 ± 0.943 nmol/min/mg protein; Vmax, transporter I, MCF-7 (MCF-7 cells [2]; [10]): 5.303 ± 1.334 nmol/min/mg; Km (MCF-7 cells [2]; [11]): 2.13 ± 0.815 mM; Vmax, transporter II, MCF-7 (MCF-7 cells [2]; [12]): 22.43 ± 12.78 nmol/min/mg; Km (MCF-7 cells [2]; [13]): 6.14 ± 4.6 mM; Vmax MCF-7 (Michaelis Menten curves) (MCF-7 cells [2]; Michaelis-Menten curve): 23.92 ± 7.20 nmol/min/mg; Km (MCF-7 cells [2]; [14]): 10.8 ± 5.13 mM; uptake in MCF-7 cells relative to metformin (MCF-7 cells [2]): approximately 14 fold
